The results in this text go back to patent US5688943A, “Benzodiazepine derivatives useful as CCK-receptor antagonists” (Yamanouchi Pharmaceutical Co., Ltd., priority 1992, dated 1997).

As usually defined, the ED50 is the midpoint of the dose-response relation. The IC50 is the concentration that gives 50% inhibition.

Molecules are shown by their SMILES. Bounds are passed on as bounds.

The target of one assay is T1, CCK-B receptors (Rattus norvegicus, UniProt P30553).
T1 construct: the whole brain was immediately excised from each of the rats and homogenized; from tissue; host or cells: SD rat whole brain membranes
T1 sequence (P30553 whole entry): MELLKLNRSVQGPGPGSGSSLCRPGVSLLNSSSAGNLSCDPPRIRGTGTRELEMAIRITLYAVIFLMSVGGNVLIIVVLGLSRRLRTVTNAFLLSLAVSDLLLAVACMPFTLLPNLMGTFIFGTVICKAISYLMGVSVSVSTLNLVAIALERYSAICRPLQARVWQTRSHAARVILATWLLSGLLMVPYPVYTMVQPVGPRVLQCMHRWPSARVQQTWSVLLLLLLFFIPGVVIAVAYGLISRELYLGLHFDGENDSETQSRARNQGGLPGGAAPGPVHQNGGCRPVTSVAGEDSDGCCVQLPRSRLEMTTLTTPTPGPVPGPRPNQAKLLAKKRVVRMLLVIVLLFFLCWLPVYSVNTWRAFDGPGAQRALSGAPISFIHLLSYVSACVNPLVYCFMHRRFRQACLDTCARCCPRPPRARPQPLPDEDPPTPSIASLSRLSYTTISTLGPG
The assay can be described thus: Measurement of binding affinity for CCK-B receptors ([125I]BH-CCK-8, rat brain membranes). To be noted: for A/B Ratio: ratio IC50 (CCK-A)/IC50 (CCK-B); for IC50: rat brain membranes, [125I]BH-CCK-8, 25° C., 120 minutes, pH 6.5, read-out: Receptor binding affinity IC50, CCK-B. The arrangement: species or system SD rats. As to the method: Measurement of binding affinity for CCK-B receptors
About 100 SD rats were decapitated without anaesthesia, the whole brain was immediately excised from each of the rats and homogenized in 10-fold volume of 0.32M aqueous solution of sucrose by the use of a Teflon-coated homogenizer, the homogenate thus obtained was centrifuged for ten minutes at 900 g by the use of a cooled centrifuge, and the supernatant was further centrifuged for 15 minutes at 11500 g. The precipitate thus obtained was dispersed in 50 mM Tris-HCl buffer (pH 7.4) containing 0.08% Triton X-100, this suspension was allowed to stand for 30 minutes and again centrifuged for 15 minutes at 11500 g, the precipitate thus obtained was washed twice with 5 mM Tris-HCl buffer and twice with 50 mM Tris-HCl buffer in that order with centrifugal separation, the washed precipitate was suspended in 50 mM Tris-HCl buffer, and the suspension thus obtained was stored at -80° C. until the membrane preparation was required.
The membrane preparations were warmed to room temperature, diluted with 10 mM HEPES buffer (containing 130 mM NaCl, 5 mM MgCl2, 1 mM EGTA and 0.25 mg/ml bacitracin; pH 6.5) and incubated at 25° C. for 120 minutes in the presence of [^125 I]BH-CCK-8 and the test compound, then separated by suction filtration. Non-specific binding was determined in the presence of 1 μM CCK-8. The amount of labelled ligand bound to the receptor was measured by the use of a γ-counter; IC50 values were determined, being that concentration of test compound required to inhibit specific binding by 50%.
(§1) A high affinity for the CCK-A receptor in a gastrin/CCK-B antagonist is thought to be undesirable as it may lead to side-effects such as cholestasis and gall stone formation during therapy. Therefore it is preferable for the therapeutic agent to be selective for the CCK-B receptor. This selectivity is expressed by the ratio IC50 (CCK-A)/IC50 (CCK-B); the higher the value of this ratio the better is the selectivity.

Assay [1] concerns pentagastrin-stimulated gastric acid secretion. The assay can be described thus: Measurement of inhibition of pentagastrin-stimulated gastric acid secretion in rat. To be noted: anaesthetised rat, test drug intravenous, pentagastrin 15 μg/Kg/hr i.v.; read-out: ED50, reduction of pentagastrin-stimulated gastric acid secretion to 50% of the maximum level. Format: in vivo. An excerpt: Measurement of inhibition of pentagastrin-stimulated gastric acid secretion in rat
A cannula was inserted into the trachea of a rat anaesthetised with urethane (intraperitoneally administered, 1.25 g/Kg), its abdominal wall was incised to expose the gastric and duodenal portions, and a polyethylene cannula was set in the anterior stomach after ligation of the cardia. The duodenum was then subjected to slight section, a polyethylene cannula was inserted from the incised portion toward the stomach, and the pylorus was ligated to fix the cannula.
Physiological saline (with pH adjusted to 7.0) was perfused from the anterior stomach toward the pylorus at a rate of 3 ml/min, and the gastric-acid secretion was measured by continuous titration of the perfusate by the use of a pH-stat (AUT-201; product of Toa Electronics, Ltd.). The continuous titration was carried out by using 25 mM NaOH solution until the pH reached 7.0, and the result was expressed as the amount of gastric acid secreted for every 10 minutes (μEq /10 min.). Pentagastrin was intravenously administered at a rate of 15 μg/Kg/hr.
The secretion of gastric acid increased upon administration of pentagastrin, reaching the maximum level after 60 minutes and stably maintaining this level after that. A test drug was then intravenously administered, and the secretion of gastric acid was measured; ED50 values were determined, being the amount of the drug required to reduce the amount of secreted gastic acid down to 50% of the maximum level.

A further assay addresses T2, CCK-A receptors (Rattus norvegicus, UniProt P30551).
T2 construct: The pancreas of an SD rat was homogenized; from tissue; host or cells: SD rat pancreas membranes
T2 sequence (P30551 1-444): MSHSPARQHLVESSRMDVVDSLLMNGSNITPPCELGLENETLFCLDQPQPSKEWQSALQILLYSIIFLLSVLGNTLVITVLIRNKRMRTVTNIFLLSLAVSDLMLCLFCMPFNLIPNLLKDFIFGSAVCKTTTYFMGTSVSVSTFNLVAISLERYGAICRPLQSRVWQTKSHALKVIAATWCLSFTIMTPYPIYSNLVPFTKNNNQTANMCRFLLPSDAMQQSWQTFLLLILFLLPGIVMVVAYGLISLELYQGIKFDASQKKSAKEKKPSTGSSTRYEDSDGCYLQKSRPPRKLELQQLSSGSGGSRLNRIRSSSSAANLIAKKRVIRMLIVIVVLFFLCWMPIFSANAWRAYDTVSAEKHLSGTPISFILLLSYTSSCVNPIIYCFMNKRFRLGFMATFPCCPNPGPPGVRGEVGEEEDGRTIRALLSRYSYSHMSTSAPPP
The assay can be described thus: Measurement of binding affinity for CCK-A receptors ([3H]L-364,718, rat pancreas membranes). As to conditions: [3H]L-364,718, 37° C., 30 minutes, read-out: Receptor binding affinity IC50, CCK-A. The arrangement: species or system SD rat. The method, then: Measurement of binding affinity for CCK-A receptors
The pancreas of an SD rat was homogenized in a 20-fold volume of 50 mM Tris-HCl buffer (pH 7.7) by the use of a Polytrone-type homogenizer, the homogenate was twice centrifuged for 10 minutes at 50000 g by the use of an ultra-centrifuge, the precipitate thus obtained was suspended in a 40-fold volume of 50 mM Tris-HCl buffer (containing 0.2% BSA, 5 mM MgCl2, 0.1 mg/ml bacitracin and 5 mM DTT; pH 7.7), and the suspension was stored at -80° C. until the membrane preparations were required.
The membrane preparations were then warmed to room temperature, diluted 1:10 with the buffer and incubated at 37° C. for 30 minutes in the presence of [^3 H]L-364,718 and the test compound then separated by suction filtration. Non-specific binding was determined in the presence of 1 μM L-364,718. The amount of labelled ligand bound to the receptor was measured by the use of a liquid scintillation counter; IC50 values were determined, being that concentration of test compound required to inhibit specific binding by 50%
as §1

For `Cc1cccc(NC(=O)NC2N=C(c3ccccc3)c3ccccc3N(CC(=O)C3CCCC3)C2=O)c1` (racemic) [Example 4, N-((3RS)-1-Cyclopentylcarbonylmethyl-2,3-dihydro-2-oxo-5-phenyl-1H-1,4-benzodiazepin-3-yl)-N'-(3-methylphenyl)urea], the “A/B Ratio” value at CCK-B receptors is given as 1,900. Further, in assay [1], the median effective dose (ED50) stood at 0.016 µmol/kg. Further, at CCK-A receptors, the IC50 amounted to 440 nM.
Take `Cc1cccc(NC(=O)NC2N=C(c3ccccc3)c3ccccc3N(CC(=O)CC3CCCCC3)C2=O)c1` (racemic) [Example 32, N-((3RS)-1-Cyclohexylmethylcarbonylmethyl-2,3-dihydro-2-oxo-5-phenyl-1H-1,4-benzodiazepin-3-yl)-N'-(3-methylphenyl)urea]: the “A/B Ratio” value at CCK-B receptors is 1,700. The concentration for half-maximal inhibition (IC50) at CCK-A receptors was 480 nM.
For the compound `Cc1cccc(NC(=O)N[C@@H]2N=C(c3ccccc3)c3ccccc3N(CC(=O)C3CCCC3)C2=O)c1` [Example 17, N-((3R)-1-Cyclopentylcarbonylmethyl-2,3-dihydro-2-oxo-5-phenyl-1H-1,4-benzodiazepin-3-yl)-N'-(3-methylphenyl)urea], on CCK-B receptors, the concentration for half-maximal inhibition (IC50) was determined as 0.07 nM and the “A/B Ratio” value is 36,000. Moreover, the IC50 on CCK-A receptors came out at 2500 nM.
In the same order, the values of `O=C(Nc1cccc(C(=O)O)c1)N[C@@H]1N=C(c2ccccc2)c2ccccc2N(C[C@H](O)C2CCCC2)C1=O` [Example 25, N-((3R)-1-((2R)-2-Cyclopentyl-2-hydroxyethyl)-2,3-dihydro-2-oxo-5-phenyl-1H-1,4-benzodiazepin-3-yl)-N'-(3-carboxyphenyl)urea] are 0.65 nM, > 15,000 and greater than 10000 nM.
In the case of `Cc1cccc(NC(=O)NC2N=C(c3ccccc3)c3ccccc3N(CC(=O)C3CCCCC3)C2=O)c1` (racemic) [Example 7, N-((3RS)-1-Cyclohexylcarbonylmethyl-2,3-dihydro-2-oxo-5-phenyl-1H-1,4-benzodiazepin-3-yl)-N'-(3-methylphenyl)urea], the median effective dose (ED50) in assay [1] came to 0.047 µmol/kg.
Turning to `CC(=O)N1CCC[C@H]1C(=O)CN1C(=O)C(NC(=O)Nc2cccc(C)c2)N=C(c2ccccc2)c2ccccc21` (mixture of isomers) [Example 9, N-((3RS)-1-((2S)-1-Acetyl-2-pyrrolidylcarbonylmethyl)-2,3-dihydro-2-oxo-5-phenyl-1H-1,4-benzodiazepin-3-yl)-N'-(3-methylphenyl)urea], the concentration for half-maximal inhibition (IC50) is 7.3 nM on CCK-B receptors and greater than 10000 nM on CCK-A receptors. In addition, the “A/B Ratio” value on CCK-B receptors was > 1,400.
The like results for `O=C(Nc1cccc(C(=O)O)c1)N[C@@H]1N=C(c2ccccc2)c2ccccc2N(CC(=O)C2CCCC2)C1=O` [Example 23, N-((3R)-1-Cyclopentylcarbonylmethyl-2,3-dihydro-2-oxo-5-phenyl-1H-1,4-benzodiazepin-3-yl)-N'-(3-carboxyphenyl)urea] were, in that order, 0.08 nM, 870 nM and 11,000.
Consider `O=C(O)Cc1cccc(NC(=O)NC2N=C(c3ccccc3)c3ccccc3N(CC(=O)C3CCCC3)C2=O)c1` (racemic) [Example 31, N-((3RS)-1-Cyclopentylcarbonylmethyl-2,3-dihydro-2-oxo-5-phenyl-1H-1,4-benzodiazepin-3-yl)-N'-(3-carboxymethylphenyl)urea], for which, on CCK-B receptors, the IC50 amounted to 0.53 nM and the “A/B Ratio” value is 6,400. In addition, the IC50 on CCK-A receptors came out at 3400 nM.
In the same order, the values of `Cc1cccc(NC(=O)N[C@@H]2N=C(c3ccccc3)c3ccccc3N(C[C@H](O)C3CCCC3)C2=O)c1` (racemic) [Example 12, N-((3RS)-1-((2RS)-2-Cyclopentyl-2-hydroxyethyl)-2,3-dihydro-2-oxo-5-phenyl-1H-1,4-benzodiazepin-3-yl)-N'-(3-methylphenyl)urea] are 1.4 nM, > 7,100 and greater than 10000 nM.
The like results for `Cc1cccc(NC(=O)N[C@@H]2N=C(c3ccccc3)c3ccccc3N(C[C@@H](O)C3CCCC3)C2=O)c1` (racemic) [Example 13, N-((3RS)-1-((2SR)-2-Cyclopentyl-2-hydroxyethyl)-2,3-dihydro-2-oxo-5-phenyl-1H-1,4-benzodiazepin-3-yl)-N'-(3-methylphenyl)urea] were, in that order, 0.11 nM, > 91,000 and greater than 10000 nM.
Regarding `Cc1cccc(NC(=O)N[C@@H]2N=C(c3ccccc3)c3ccccc3N(C)C2=O)c1` [reference compound], in assay [1], the ED50 amounted to 4.2 µmol/kg.
The same measure, in the same setting: for `Cc1cccc(NC(=O)NC2N=C(c3ccccc3)c3ccccc3N(CC(=O)C3CCCCCC3)C2=O)c1` (racemic) [Example 5, N-((3RS)-1-Cycloheptylcarbonylmethyl-2,3-dihydro-2-oxo-5-phenyl-1H-1,4-benzodiazepin-3-yl)-N'-(3-methylphenyl)urea] the value was 0.018 µmol/kg.
